Publication PMC11703153 (bioRxiv, 2025)
pKd: −log10 of the molar value.

biological target: T1, ChREBP (ChREBPα) (Mus musculus, UniProt Q99MZ3); test: isothermal titration calorimetry, purified refolded GSM domain, […] °C; assay type: binding; conditions: not given
T1 sequence (Q99MZ3 43-307): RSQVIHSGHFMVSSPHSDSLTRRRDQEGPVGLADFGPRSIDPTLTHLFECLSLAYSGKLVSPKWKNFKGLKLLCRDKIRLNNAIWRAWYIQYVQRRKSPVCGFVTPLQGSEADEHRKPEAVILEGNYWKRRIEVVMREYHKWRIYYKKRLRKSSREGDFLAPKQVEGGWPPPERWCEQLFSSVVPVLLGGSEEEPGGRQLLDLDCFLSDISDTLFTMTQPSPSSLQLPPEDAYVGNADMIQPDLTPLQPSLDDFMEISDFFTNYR

Compound | pKd
O=C(CO)COP(=O)(O)O [DHAP, dihydroxyacetone phosphate] | 3.34

same assay, conditions: read-out: Kd ± SD

Compound | pKd
O=P(O)(O)OC[C@H]1OC(O)(COP(=O)(O)O)[C@@H](O)[C@@H]1O (stereo partly shown) [F1,6BP, fructose-1,6-bisphosphate] | 3.60
O=C(CO)[C@@H](O)[C@H](O)[C@H](O)COP(=O)(O)O [F6P] | 3.88
O=P(O)(O)OCC(O)CO (stereo not shown) [G3P, glycerol-3-phosphate] | 4.77
O=P(O)(O)OC[C@H]1OC(O)[C@H](O)[C@@H](O)[C@@H]1O (stereo partly shown) [G6P, glucose-6-phosphate] | 4.19
O=CC(O)COP(=O)(O)O (stereo not shown) [GA3P, glyceraldehyde-3-phosphate] | 3.66
OC[C@H]1OC(O)[C@H](O)[C@@H](O)[C@@H]1O (stereo partly shown) [Glc, glucose] | 3.57
